The values that follow come from ChEMBL document CHEMBL1151314, “Phenylethanoid glycosides from Digitalis purpurea and Penstemon linarioides with PKCalpha-inhibitory activity” (J Nat Prod, 1998).

The assay concerns the target Protein kinase C alpha type (Homo sapiens, UniProt P17252). Kind of assay: Inhibition of human recombinant PKCalpha.
One may read the IC50 as the concentration that gives 50% inhibition. As for `C[C@@H]1O[C@@H](OC[C@H]2O[C@@H](OCCc3ccc(O)c(O)c3)[C@H](O)[C@@H](O[C@@H]3O[C@@H](C)[C@H](O)[C@@H](O)[C@H]3O)[C@@H]2OC(=O)/C=C/c2ccc(O)c(O)c2)[C@H](O)[C@H](O)[C@H]1O` [POLIUMOSIDE], the IC50 was 24.4 µM.
Take `O=C(/C=C/c1ccc(O)c(O)c1)O[C@H]1[C@H](O)[C@@H](O)[C@H](OCCc2ccc(O)c(O)c2)O[C@@H]1CO` [CALCEOLARIOSIDE A]: the IC50 was found to be 0.6 µM.
Turning to `O=C(/C=C/c1ccc(O)c(O)c1)OC[C@H]1O[C@@H](OCCc2ccc(O)c(O)c2)[C@H](O)[C@@H](O)[C@@H]1O` [CALCEOLARIOSIDE B], the IC50 is 4.6 µM.
The figure for `COc1ccc(CCO[C@@H]2O[C@H](CO[C@@H]3O[C@@H](C)[C@H](O)[C@@H](O)[C@H]3O)[C@@H](OC(=O)/C=C/c3ccc(O)c(OC)c3)[C@H](O[C@@H]3O[C@@H](C)[C@H](O)[C@@H](O)[C@H]3O)[C@H]2O)cc1O` is 125 µM.
As for `COc1cc(/C=C/C(=O)O[C@H]2[C@H](O[C@@H]3O[C@@H](C)[C@H](O)[C@@H](O)[C@H]3O)[C@@H](O)[C@H](OCCc3ccc(O)c(O)c3)O[C@@H]2CO)ccc1O` [LEUCOSCEPTOSIDE A], the IC50 amounted to 19 µM.
Regarding `O=C(/C=C/c1ccc(O)c(O)c1)OC[C@H]1O[C@@H](OCCc2ccc(O)c(O)c2)[C@H](O)[C@@H](O[C@@H]2O[C@H](CO)[C@@H](O)[C@H](O)[C@H]2O)[C@@H]1O` [PLANTAINOSIDE D], the IC50 is 14.8 µM.
Consider `C[C@@H]1O[C@@H](OC[C@H]2O[C@@H](OCCc3ccc(O)c(O)c3)[C@H](O)[C@@H](O)[C@@H]2OC(=O)/C=C/c2ccc(O)c(O)c2)[C@H](O)[C@H](O)[C@H]1O` [FORSYTHIASIDE], for which the IC50 stood at 1.9 µM.
Regarding `C[C@@H]1O[C@@H](O[C@@H]2[C@@H](O)[C@H](OCCc3ccc(O)c(O)c3)O[C@H](CO)[C@H]2OC(=O)/C=C/c2ccc(O)c(O)c2)[C@H](O)[C@H](O)[C@H]1O` [ACETOSIDE], the IC50 is 9.3 µM.
